We go through four molecules from ChEMBL document CHEMBL1148071, “New cytotoxic peroxylactones from the marine sponge, Plakinastrella onkodes” (J Nat Prod, 1994).

Test [1] concerns the target T1, Protein kinase C delta type (Homo sapiens, UniProt Q05655). Description: Inhibition of PKCdelta.
Target sequence in this assay (Q05655 whole entry): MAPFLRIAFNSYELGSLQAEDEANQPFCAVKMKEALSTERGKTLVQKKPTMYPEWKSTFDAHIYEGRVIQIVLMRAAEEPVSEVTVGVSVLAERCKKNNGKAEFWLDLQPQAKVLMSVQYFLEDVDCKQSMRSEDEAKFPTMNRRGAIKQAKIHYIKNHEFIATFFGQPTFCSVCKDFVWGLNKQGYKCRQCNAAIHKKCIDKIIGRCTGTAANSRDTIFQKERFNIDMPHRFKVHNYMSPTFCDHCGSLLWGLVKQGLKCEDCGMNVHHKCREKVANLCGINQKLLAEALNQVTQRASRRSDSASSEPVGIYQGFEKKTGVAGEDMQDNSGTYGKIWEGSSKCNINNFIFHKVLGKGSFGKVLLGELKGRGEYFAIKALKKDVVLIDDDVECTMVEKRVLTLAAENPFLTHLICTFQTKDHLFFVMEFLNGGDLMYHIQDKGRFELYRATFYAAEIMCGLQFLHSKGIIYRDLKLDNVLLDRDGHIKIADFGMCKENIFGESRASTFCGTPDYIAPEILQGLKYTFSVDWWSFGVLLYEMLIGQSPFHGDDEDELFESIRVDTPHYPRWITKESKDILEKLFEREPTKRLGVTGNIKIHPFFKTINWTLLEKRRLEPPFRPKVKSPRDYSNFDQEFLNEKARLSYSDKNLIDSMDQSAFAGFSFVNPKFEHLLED
Test [2] deals with T2, Protein kinase C alpha type (Homo sapiens, UniProt P17252). Description: Inhibition of PKCalpha.
The target of test [3] is T3, Protein kinase C beta type (Homo sapiens, UniProt P05771). Description: Inhibition of PKCbeta2.
Target sequence in this assay (P05771 whole entry): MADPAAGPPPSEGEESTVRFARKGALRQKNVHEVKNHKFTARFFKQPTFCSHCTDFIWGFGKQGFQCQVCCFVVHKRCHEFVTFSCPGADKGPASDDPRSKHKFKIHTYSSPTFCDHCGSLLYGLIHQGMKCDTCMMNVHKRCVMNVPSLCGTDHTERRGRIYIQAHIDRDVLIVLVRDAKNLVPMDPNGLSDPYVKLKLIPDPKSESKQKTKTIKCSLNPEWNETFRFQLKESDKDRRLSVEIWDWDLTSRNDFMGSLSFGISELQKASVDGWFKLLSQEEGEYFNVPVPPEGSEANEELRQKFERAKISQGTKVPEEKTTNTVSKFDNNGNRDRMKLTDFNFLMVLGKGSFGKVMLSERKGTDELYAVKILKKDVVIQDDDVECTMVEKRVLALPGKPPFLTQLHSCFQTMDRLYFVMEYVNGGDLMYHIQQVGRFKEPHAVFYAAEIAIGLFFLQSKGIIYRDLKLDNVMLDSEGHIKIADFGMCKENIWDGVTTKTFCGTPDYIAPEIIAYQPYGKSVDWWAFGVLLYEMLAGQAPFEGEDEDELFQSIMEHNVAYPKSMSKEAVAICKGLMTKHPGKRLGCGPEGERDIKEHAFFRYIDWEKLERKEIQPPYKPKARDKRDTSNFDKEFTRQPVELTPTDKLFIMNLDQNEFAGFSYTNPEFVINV
Test [4] deals with T3, Protein kinase C beta type. Description: Inhibition of PKCbeta1.
Target sequence in this assay (P05771 whole entry): as above
Test [5] is described as follows: Inhibition of cell adhesion in mouse EL-4.IL-2 cells. The class given is functional, cell-based.
In the next test the test system is A549. Briefly: Cytotoxicity against human A549 cells. The class given is functional, cell-based.
The subject of another test is P388. Description: Cytotoxicity against mouse P388 cells. The class given is functional, cell-based.
Test [6] addresses T4, Protein kinase C epsilon type (Homo sapiens) (UniProt Q02156).
T4 sequence (whole entry): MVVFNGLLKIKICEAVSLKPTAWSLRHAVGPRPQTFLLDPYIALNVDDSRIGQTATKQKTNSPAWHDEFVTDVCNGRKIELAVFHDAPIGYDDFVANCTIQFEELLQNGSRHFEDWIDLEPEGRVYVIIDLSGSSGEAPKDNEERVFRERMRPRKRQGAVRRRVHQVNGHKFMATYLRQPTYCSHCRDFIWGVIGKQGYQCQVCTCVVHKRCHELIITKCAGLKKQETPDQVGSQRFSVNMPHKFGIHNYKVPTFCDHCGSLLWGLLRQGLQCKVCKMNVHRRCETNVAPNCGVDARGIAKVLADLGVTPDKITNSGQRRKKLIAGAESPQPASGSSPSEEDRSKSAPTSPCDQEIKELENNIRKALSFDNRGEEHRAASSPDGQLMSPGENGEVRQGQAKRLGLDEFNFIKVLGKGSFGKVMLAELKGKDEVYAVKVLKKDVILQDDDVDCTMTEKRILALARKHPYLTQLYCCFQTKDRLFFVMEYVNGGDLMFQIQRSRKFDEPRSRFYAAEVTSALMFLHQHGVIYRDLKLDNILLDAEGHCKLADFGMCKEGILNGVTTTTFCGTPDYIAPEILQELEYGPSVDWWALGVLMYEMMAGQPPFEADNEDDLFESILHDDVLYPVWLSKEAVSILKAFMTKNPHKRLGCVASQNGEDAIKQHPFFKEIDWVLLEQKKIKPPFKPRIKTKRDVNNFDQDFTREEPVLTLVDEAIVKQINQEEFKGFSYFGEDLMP
Description: Agonist activity at PKCepsilon at 50 ug/ml. The class given is functional.

For test [7], the target named is T1, Protein kinase C delta type. Description: Agonist activity at PKCdelta at 50 ug/ml. The class given is functional.
Target sequence in this assay (Q05655 whole entry, looked up): as the sequence (Q05655 whole entry) above
Test [8] deals with T2, Protein kinase C alpha type. Briefly: Agonist activity at PKCalpha at 50 ug/ml. The class given is functional.
In test [9] the target is Protein kinase C gamma type (Homo sapiens) (UniProt P05129). Briefly: Agonist activity at PKCgamma at 50 ug/ml. The class given is functional.
Test [10] has as its target T3, Protein kinase C beta type. Description: Agonist activity at PKCbeta2 at 50 ug/ml. The class given is functional.
Target sequence in this assay (P05771 2-671 limits assumed): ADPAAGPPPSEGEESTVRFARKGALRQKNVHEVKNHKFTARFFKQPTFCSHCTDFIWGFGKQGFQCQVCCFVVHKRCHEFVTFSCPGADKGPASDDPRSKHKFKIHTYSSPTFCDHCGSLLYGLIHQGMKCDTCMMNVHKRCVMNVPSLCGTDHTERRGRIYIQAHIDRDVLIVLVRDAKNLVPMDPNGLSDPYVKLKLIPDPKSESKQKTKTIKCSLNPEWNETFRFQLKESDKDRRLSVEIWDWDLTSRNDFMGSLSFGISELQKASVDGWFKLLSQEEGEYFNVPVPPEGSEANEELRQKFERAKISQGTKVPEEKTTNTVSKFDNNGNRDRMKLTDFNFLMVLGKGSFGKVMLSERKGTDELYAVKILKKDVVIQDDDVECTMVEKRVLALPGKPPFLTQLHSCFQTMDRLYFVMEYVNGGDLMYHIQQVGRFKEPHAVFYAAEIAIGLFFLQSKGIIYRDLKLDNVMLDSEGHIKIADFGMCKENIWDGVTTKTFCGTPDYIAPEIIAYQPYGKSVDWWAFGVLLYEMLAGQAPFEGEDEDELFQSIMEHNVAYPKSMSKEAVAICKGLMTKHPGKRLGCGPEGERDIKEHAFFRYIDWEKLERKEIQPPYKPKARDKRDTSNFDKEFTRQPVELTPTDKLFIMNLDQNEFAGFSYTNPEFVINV
The target of test [11] is T3, Protein kinase C beta type. Description: Agonist activity at PKCbeta1 at 50 ug/ml. The class given is functional.
Target sequence in this assay (P05771 2-671 limits assumed): as above
Test [12] can be described thus: Induction of cell adhesion in mouse EL-4.IL-2 cells. The class given is functional, cell-based.

SMILES strings stand for the structures. In brackets after ≈: the same amount, converted by molar mass.

For `CCCCCCCCCCCCCCCC[C@@]1(OC)C=C[C@@H](CC(=O)OC)OO1` [CHONDRILLIN], the IC50 (in general, the midpoint of a concentration-inhibition curve) is 55.7 µM in [1], 87.2 µM in test [2], 119 µM in [3] and 119 µM in test [4].

For `COC(=O)C[C@@]1(C)C[C@](C)(CC(C)CCCCCCc2ccccc2)OO1` (some centres undefined) [EPIPLAKINIC ACID E METHYL ESTER], the results for the IC50 (in [5]; with A549; in the test on P388) were 4.6 µg/mL (≈ 12.2 µM), 2 µg/mL (≈ 5.31 µM) and 2.5 µg/mL (≈ 6.64 µM), respectively.

As to `CC(CCCCCCCCc1ccccc1)C[C@]1(C)C[C@]2(C)OC(=O)C[C@@H]2OO1` (some centres undefined) [PLAKORTOLIDE B], the Activity in [6] was -38%; in test [7], -9%; in test [8], -19%; in test [9], -9%; in test [10] it was -27%; in test [11], -13%. Further, the concentration for half-maximal inhibition (IC50) in the test on A549 amounted to 1.3 µg/mL (≈ 3.23 µM); in the test on P388, 0.4 µg/mL (≈ 0.994 µM); in test [12] it was 4.4 µg/mL (≈ 10.9 µM).

Take `CC(CCCCCCc1ccccc1)CC(C)C[C@]1(C)C[C@]2(C)OC(=O)C[C@@H]2OO1` (some centres undefined) [PLAKORTOLIDE D]: the figures for the IC50 (in test [5]; with A549; in the test with P388) were 15.8 µg/mL (≈ 37.9 µM), 3.8 µg/mL (≈ 9.12 µM) and 0.8 µg/mL (≈ 1.92 µM), respectively.
